According to patent US20210315893A1 (Galapagos NV, priority 2017, published 2021):

Experiments:
[1] = molecular target: T1, human GPCR sphingosine 1-phosphate receptor 2 (Homo sapiens, UniProt O95136); test: S1PR2 antagonist Ca2+ flux assay; format: cell-based; conditions: antagonist mode, CHO-S1PR2 cells, S1P at EC80, Ca2+ fluorescence; read-out: S1P2 EC50 (nM), S1P2 antagonist EC50
T1 construct: host or cells: CHO
Protocol: Triggering of S1PR2 by administration of Sphingosine-1-phosphate leads to a transient increase in intracellular Ca^2+. The Ca^2+ flux assays are measuring the release of Ca^2+ intracellularly by use of a Ca^2+ sensitive fluorescent dye. The assay is firstly run in agonist mode (incubation of compounds alone) to ensure that the Ca^2+ released measured is not caused by the test compound having an agonistic effect. Then the assay is continued in antagonist mode (Sphingosine-1-Phosphate added to incubated medium containing the test compounds).
CHO cells stably overexpressing human GPCR sphingosine 1-phosphate receptor 2 (CHO-S1PR2 Perkin Elmer; ES-594-A) are seeded from a frozen stock in 384 wells sterile microplates (50 μL; 7,500 cells/well) and are incubated overnight at 37° C. and 5% CO2. The next day cells are washed twice with starvation medium (F-12 Ham's medium containing 0.1% BSA (Fatty acid free: FAF)) and left in 25 μL starvation medium for 1 h at 37° C., 5% CO2. After this starvation cells are incubated with 25 μL buffer containing the Ca^2+-sensitive fluorescent dye (0.5 mg Fluo8+125 mg Allura Red in 100 mL of 1% DMSO, in HBSS+20 mM Hepes+5 mM probenecid). The cells are incubated for an additional 1 h after which 10 μL compounds, diluted in HBSS buffer with 20 mM Hepes and 0.1% BSA (FAF), are added to the cells and intracellular Ca2+ changes are immediately measured by reading fluorescence during 3 min (FDSS/pCELL reader). The ratio of the maximal fluorescence over the background fluorescence before compound injection is used to determine compound response.
After readout of the agonist activity, the plates are incubated for 15 min at 37° C. and 5% CO2. Then, cells are stimulated with 10 μL Sphingosine-1-Phosphate (S1P) (Avanti Polar lipids-860492P) at its EC80 concentration. Intracellular Ca2+ changes are immediately measured by reading fluorescence during 3 min (FDSS/pCELL reader). The ratio of the maximal fluorescence over the background fluorescence before compound injection is used to determine compound response.
The obtained ratio's for agonist and antagonist readout were normalized versus vehicle and EC 100 of S1P ascontrols for agonist mode and versus vehicle and […]. From these normalized data EC50 of the compounds are derived.

S1PR2 = molecular target: T2, S1PR2 (Homo sapiens, UniProt O95136); test: S1PR2 binding assay (competition with radioactively labeled S1P, SpA); conditions: membranes from stable cell line over expressing S1PR2, SpA beads; read-out: S1P2 EC50 (nM), S1PR2 binding EC50
T2 construct: expressed in transfected cells
T2 sequence (O95136 whole entry): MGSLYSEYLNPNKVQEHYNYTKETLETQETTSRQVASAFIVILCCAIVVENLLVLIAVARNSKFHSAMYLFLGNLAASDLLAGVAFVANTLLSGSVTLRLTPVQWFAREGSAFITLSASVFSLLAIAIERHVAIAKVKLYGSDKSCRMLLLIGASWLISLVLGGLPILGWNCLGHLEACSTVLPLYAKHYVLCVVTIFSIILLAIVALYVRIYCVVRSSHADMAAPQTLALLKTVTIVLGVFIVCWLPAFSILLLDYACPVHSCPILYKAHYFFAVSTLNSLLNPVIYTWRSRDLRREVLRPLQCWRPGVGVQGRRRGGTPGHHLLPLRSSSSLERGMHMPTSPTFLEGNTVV
Protocol: The following assay can be used for determination of S1PR2 binding. The binding assay measures the potential to compete with radioactively labeled S1P for binding to the receptor.
The assay is performed in a96 well plate where the following reagents are added. First 50 μL compound is added into the assay plate, followed by addition of 100 μL ofa mixture consisting of membrane and Scintillation proximity Assay (SpA) beads [mixture consists […] membranes derived from stable cell line over expressing SPR2, 0.5 mg/well Polyvinyltoluene-Wheat Germ-Agglutinin (PVT-WGA) beads (Perkin Elmer, RPNQOO1)]. All components are diluted in assay buffer containing 20 mM Tris pH 7.5; 10 mM MgCl2; 100 mM NaCl; 0.4% BSA FAF; 1 mM Na3VO4) and incubated for 15 min until addition to the assay plate. Subsequently, 50 ul of radioactively labeled S1P is added to the wells (Sphingosine, D-erythro-[3-3H] 1-phosphate; ARC; ART0778). After an incubation for 2 h at room temperature, plates are centrifuged at 2000 rpm during 20 min. Plates are read on a Topcount reader (Perkin Elmer) immediately after centrifugation (readout time, 1 min/well).

T1 sequence (O95136 whole entry): as above

Row | SMILES | EC50 [1] [nM] | EC50 (S1PR2) [nM]
1 | CCOc1cc2nc(Cc3nn(CC(=O)O)c(=O)c4ccccc34)[nH]c2cc1F [Compound 129, 2-[4-[(5-ethoxy-6-fluoro-1H-benzimidazol-2-yl)methyl]-1-oxo-phthalazin-2-yl]acetic acid] | 79.3 | 1390
2 | O=C(O)Cn1nc(Cc2nc3cc(OCC(F)F)c(F)cc3[nH]2)c2ccccc2c1=O [Compound 130, 2-[4-[[5-(2,2-difluoroethoxy)-6-fluoro-1H-benzimidazol-2-yl]methyl]-1-oxo-phthalazin-2-yl]acetic acid] | 63.8 | 2500
3 | CC(C)(C)NC(=O)Cn1nc(Cc2nc3cc(Cl)c(OC(F)(F)F)cc3[nH]2)c2c(c1=O)CCCC2 [Compound 147] | 1380 | 1090
4 | N#Cc1cc2nc(Cc3nn(CC(=O)N4CCOCC45CCC5)c(=O)c4ccccc34)[nH]c2cc1OCC(F)F [Compound 189, 6-(2,2-difluoroethoxy)-2-[[3-[2-(6-oxa-9-azaspiro[3.5]nonan-9-yl)-2-oxo-ethyl]-4-oxo-phthalazin-1-yl]methyl]-1H-benzimidazole-5-carbonitrile] | 143 | 558
5 | CC(C)(C)C(O)CNC(=O)Cn1nc(Cc2nc3cc(OCC(F)F)c(C#N)cc3[nH]2)c2ccccc2c1=O (stereo not drawn) [Compound 222, 2-[4-[[6-cyano-5-(2,2-difluoroethoxy)-1H-benzimidazol-2-yl]methyl]-1-oxo-phthalazin-2-yl]-N-(2-hydroxy-3,3-dimethylbutyl)acetamide] | 26.1 | 137
6 | N#Cc1cc2[nH]c(Cc3nn(CC(=O)NCC(F)F)c(=O)c4ccccc34)nc2cc1OCC(F)F [Compound 223, 2-[4-[[6-cyano-5-(2,2-difluoroethoxy)-1H-benzimidazol-2-yl]methyl]-1-oxo-phthalazin-2-yl]-N-(2,2-difluoroethyl)acetamide] | 68.8 | 330
7 | N#Cc1cc2[nH]c(Cc3nn(CC(=O)NCCC(F)(F)F)c(=O)c4ccccc34)nc2cc1OCC(F)F [Compound 224, 2-[4-[[6-cyano-5-(2,2-difluoroethoxy)-1H-benzimidazol-2-yl]methyl]-1-oxo-phthalazin-2-yl]-N-(3,3,3-trifluoropropyl)acetamide] | 19.6 | 232
8 | N#Cc1cc2[nH]c(Cc3nn(CC(=O)NC(C#N)C4CC4)c(=O)c4ccccc34)nc2cc1OCC(F)F (stereo not drawn) [Compound 226, N-[cyano-(cyclopropyl)methyl]-2-[4-[[6-cyano-5-(2,2-difluoroethoxy)-1H-benzimidazol-2-yl]methyl]-1-oxo-phthalazin-2-yl]acetamide] | 66.2 | 552
9 | N#Cc1cc2[nH]c(Cc3nn(CC(=O)NCC(F)(F)CO)c(=O)c4ccccc34)nc2cc1OCC(F)F [Compound 228, 2-[4-[[6-cyano-5-(2,2-difluoroethoxy)-1H-benzimidazol-2-yl]methyl]-1-oxo-phthalazin-2-yl]-N-(2,2-difluoro-3-hydroxypropyl)acetamide] | 21.1 | 52.5

The remaining lines, values ahead:

Row | EC50 [1] [nM] | EC50 (S1PR2) [nM] | SMILES
10 | 120 | 503 | N#Cc1cc2[nH]c(Cc3nn(CC(=O)NCCS(N)(=O)=O)c(=O)c4ccccc34)nc2cc1OCC(F)F [Compound 229, 2-[4-[[6-cyano-5-(2,2-difluoroethoxy)-1H-benzimidazol-2-yl]methyl]-1-oxo-phthalazin-2-yl]-N-(2-sulfamoylethyl)acetamide]
11 | 408 | 1950 | N#Cc1cc2[nH]c(Cc3nn(CC(=O)NCC(F)(F)F)c(=O)c4ccccc34)nc2cc1OCC(F)F [Compound 230, 2-[4-[[6-cyano-5-(2,2-difluoroethoxy)-1H-benzimidazol-2-yl)methyl]-1-oxo-phthalazin-2-yl]-N-(2,2,2-trifluoroethyl)acetamide]
12 | 77.9 | 453 | N#Cc1cc2[nH]c(Cc3nn(CC(=O)N4CCCC(O)C4)c(=O)c4ccccc34)nc2cc1OCC(F)F (stereo not drawn) [Compound 231, 6-(2,2-difluoroethoxy)-2-[[3-[2-(3-hydroxy-1-piperidyl)-2-oxo-ethyl]-4-oxo-phthalazin-1-yl]methyl]-3H-benzimidazole-5-carbonitrile]
13 | 16.3 | 122 | N#Cc1cc2[nH]c(Cc3nn(CC(=O)NCC4CC(F)(F)C4)c(=O)c4ccccc34)nc2cc1OCC(F)F [Compound 232, 2-[4-[[6-cyano-5-(2,2-difluoroethoxy)-1H-benzimidazol-2-yl]methyl]-1-oxo-phthalazin-2-yl]-N-[(3,3-difluorocyclobutyl)methyl]acetamide]
14 | 958 | 2090 | CN(C)C(=O)C1CCN(C(=O)Cn2nc(Cc3nc4cc(OCC(F)F)c(C#N)cc4[nH]3)c3ccccc3c2=O)CC1 [Compound 236, 1-[2-[4-[[6-cyano-5-(2,2-difluoroethoxy)-1H-benzimidazol-2-yl]methyl]-1-oxo-phthalazin-2-yl]acetyl]-N,N-dimethyl-piperidine-4-carboxamide]
15 | 55.8 | 650 | CC(C)(O)C1CCCN(C(=O)Cn2nc(Cc3nc4cc(OCC(F)F)c(C#N)cc4[nH]3)c3ccccc3c2=O)C1 (stereo not drawn) [Compound 237, 6-(2,2-difluoroethoxy)-2-[[3-[2-[3-(1-hydroxy-1-methyl-ethyl)-1-piperidyl]-2-oxo-ethyl]-4-oxo-phthalazin-1-yl]methyl]-3H-benzimidazole-5-carbonitrile]
16 | 781 | 1740 | N#Cc1cc2[nH]c(Cc3nn(CC(=O)N4CC5(CCOCC5)C4)c(=O)c4ccccc34)nc2cc1OCC(F)F [Compound 239, 6-(2,2-difluoroethoxy)-2-[[3-[2-(7-oxa-2-azaspiro[3.5]nonan-2-yl)-2-oxo-ethyl]-4-oxo-phthalazin-1-yl]methyl]-3H-benzimidazole-5-carbonitrile]
17 | 345 | 1300 | CCS(=O)(=O)C1CCN(C(=O)Cn2nc(Cc3nc4cc(OCC(F)F)c(C#N)cc4[nH]3)c3ccccc3c2=O)CC1 [Compound 240, 6-(2,2-difluoroethoxy)-2-[[3-[2-(4-ethylsulfonyl-1-piperidyl)-2-oxo-ethyl]-4-oxo-phthalazin-1-yl]methyl]-3H-benzimidazole-5-carbonitrile]
18 | 47.2 | 372 | CN(C)C(=O)CN(C)C(=O)Cn1nc(Cc2nc3cc(OCC(F)F)c(C#N)cc3[nH]2)c2ccccc2c1=O [Compound 241, 2-[4-[[6-cyano-5-(2,2-difluoroethoxy)-1H-benzimidazol-2-yl]methyl]-1-oxo-phthalazin-2-yl]-N-[2-(dimethylamino)-2-oxo-ethyl]-N-methyl-acetamide]
19 | 14.3 | 609 | CS(=O)(=O)NC(=O)Cn1nc(Cc2nc3cc(OCC(F)F)c(Cl)cc3[nH]2)c2cc(C#N)ccc2c1=O [Compound 245, 2-[4-[[6-chloro-5-(2,2-difluoroethoxy)-1H-benzimidazol-2-yl]methyl]-6-cyano-1-oxo-phthalazin-2-yl]-N-methylsulfonyl-acetamide]
20 | 13.6 | 775 | CC(C(=O)NS(C)(=O)=O)n1nc(Cc2nc3cc(OCC4CC4)c(Cl)cc3[nH]2)c2ccccc2c1=O (stereo not drawn) [Compound 246, N-{2-[4-(6-Chloro-5-cyclopropylmethoxy-1H-benzoimidazol-2-ylmethvl)-1-oxo-1H-phthalazin-2-yl]-propionyl}-methanesulfonamide]
21 | 87.9 | 2470 | CCOc1cc2nc(Cc3nn(CC(=O)NS(C)(=O)=O)c(=O)c4ccccc34)[nH]c2cc1F [Compound 247, 2-[4-[(5-ethoxy-6-fluoro-1H-benzimidazol-2-yl)methyl]-1-oxo-phthalazin-2-yl]-N-methylsulfonyl-acetamide]
